What was measured:
sickle cell mice [1] = experiment: TNFα-induced vaso-occlusive crisis in sickle cell mice, intravital microscopy of cremaster venules (prevention protocol); format: in vivo
From the text: FIG. 6 is a schematic of the protocol for inducing a vaso-occlusive crisis (VOC) in sickle cell-affected mice and recording blood flow.
(§1) An animal model of sickle cell disease exists in fully chimeric mice constructed by bone marrow transplantation and expressing >97% human globin containing the β^S mutation. A vaso-occlusive crisis is induced by stimulation with TNFα and is monitored by observing and recording blood flow by intravital microscopy of the venules in the cremaster muscle.
(§2) Each mouse is prepared by cannulating the right carotid artery and by undergoing a tracheotomy to facilitate ventilation under anesthesia. Twenty (20) minutes prior to stimulation with TNFα, the cremaster muscle is gently exteriorized and the venules are set on a microscope stage for observation and recording of blood flow. Just prior to administration of TNFα and again prior to the recording of the venules (90 min later), Compound # 2 is administered through the cannulated carotid artery and data is obtained by monitoring blood flow and recording time of death.

sickle cell mice [2] = experiment: Delayed treatment of VOC in sickle cell mice (treatment protocol); format: in vivo; conditions: control PBS
Experimental: FIG. 9 is a schematic of a sickle cell mouse model for use with both prevention and treatment protocols. The black arrows underneath Comp. #2 are for the prevention protocol. The gray arrow underneath Comp. #2 is for the treatment protocol. Recording is started at the 90 minute mark for the prevention protocol. Recording is started at the 120 minute mark for the treatment protocol.
as §1, §2

## CC1OC(OC2C(NC(=O)c3cc(O)nc(O)n3)CC(C(=O)NCCNC(=O)COCCOCC(=O)Nc3cccc(CNc4cc(S(=O)(=O)O)cc5cc(S(=O)(=O)O)cc(S(=O)(=O)O)c45)c3)CC2OC2OC(CO)C(O)C(O[C@@H](CC3CCCCC3)C(=O)O)C2OC(=O)c2ccccc2)C(O)C(O)C1O (some centres unmarked) [Compound #2]
Sickle cell mice [1]; after stimulation with TNFα, compound given through cannulated carotid artery just prior to TNFα and again 90 min later, FIG. 7
  blood flow in the sickle cell mouse: restoring blood flow to a velocity observed in normal mice
Sickle cell mice [1]; sickle cell mice, TNFα-induced vaso-occlusive crisis, FIG. 8
  adhesion of sickle red blood cells (RBC) to leukocytes: significant inhibition of adhesion
Sickle cell mice [2]; WBCs adherent to vascular endothelium, FIG. 11
  adherent white blood cells (WBCs): significant reduction in the number of WBCs adherent to the vascular endothelium
Sickle cell mice [2]; FIG. 10
  blood flow rate: normalizes the rate of blood flow
Sickle cell mice [2]; FIG. 12
  interactions of sickle red blood cells (RBCS) with leukocytes: dramatically reduces interactions of sickle RBCs with leukocytes
